IC50 data for 13 compounds are collected here from patent US7618983B2, “Bicyclic triazole α4 integrin inhibitors” (Janssen Pharmaceutica, N.V., priority 2004, dated 2009).

Where two headings read alike, the source gives them in different places.

For one test, the target named is T1, human α4β7 integrin (Homo sapiens, UniProt P13612+P26010).
T1 construct: expressed in transfected cells; host or cells: K562 cells, stably transfected
T1 sequence (P13612 34-1032): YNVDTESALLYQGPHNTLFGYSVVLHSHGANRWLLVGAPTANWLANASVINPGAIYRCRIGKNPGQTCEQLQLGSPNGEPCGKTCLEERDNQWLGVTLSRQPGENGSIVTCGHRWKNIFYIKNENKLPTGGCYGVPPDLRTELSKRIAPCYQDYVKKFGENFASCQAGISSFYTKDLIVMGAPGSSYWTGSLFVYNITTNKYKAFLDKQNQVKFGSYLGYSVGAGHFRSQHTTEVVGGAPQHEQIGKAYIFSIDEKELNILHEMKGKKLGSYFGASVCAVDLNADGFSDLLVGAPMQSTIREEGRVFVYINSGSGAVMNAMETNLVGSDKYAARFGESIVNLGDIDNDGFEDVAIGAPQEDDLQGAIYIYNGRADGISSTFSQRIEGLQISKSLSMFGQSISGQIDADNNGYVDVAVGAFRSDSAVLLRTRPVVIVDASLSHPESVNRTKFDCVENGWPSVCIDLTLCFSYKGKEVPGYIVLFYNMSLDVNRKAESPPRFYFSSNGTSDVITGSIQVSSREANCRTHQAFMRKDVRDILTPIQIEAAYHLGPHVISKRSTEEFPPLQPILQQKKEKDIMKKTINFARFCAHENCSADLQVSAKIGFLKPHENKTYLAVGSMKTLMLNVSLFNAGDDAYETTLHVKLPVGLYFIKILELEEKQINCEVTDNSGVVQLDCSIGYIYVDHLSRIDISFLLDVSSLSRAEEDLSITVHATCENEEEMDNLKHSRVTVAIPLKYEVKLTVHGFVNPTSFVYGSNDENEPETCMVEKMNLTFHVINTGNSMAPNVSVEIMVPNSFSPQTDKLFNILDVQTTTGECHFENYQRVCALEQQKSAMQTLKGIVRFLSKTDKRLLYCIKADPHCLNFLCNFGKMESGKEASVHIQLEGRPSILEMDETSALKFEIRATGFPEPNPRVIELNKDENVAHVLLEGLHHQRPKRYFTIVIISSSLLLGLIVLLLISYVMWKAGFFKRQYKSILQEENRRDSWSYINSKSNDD
T1 sequence (P26010 20-798): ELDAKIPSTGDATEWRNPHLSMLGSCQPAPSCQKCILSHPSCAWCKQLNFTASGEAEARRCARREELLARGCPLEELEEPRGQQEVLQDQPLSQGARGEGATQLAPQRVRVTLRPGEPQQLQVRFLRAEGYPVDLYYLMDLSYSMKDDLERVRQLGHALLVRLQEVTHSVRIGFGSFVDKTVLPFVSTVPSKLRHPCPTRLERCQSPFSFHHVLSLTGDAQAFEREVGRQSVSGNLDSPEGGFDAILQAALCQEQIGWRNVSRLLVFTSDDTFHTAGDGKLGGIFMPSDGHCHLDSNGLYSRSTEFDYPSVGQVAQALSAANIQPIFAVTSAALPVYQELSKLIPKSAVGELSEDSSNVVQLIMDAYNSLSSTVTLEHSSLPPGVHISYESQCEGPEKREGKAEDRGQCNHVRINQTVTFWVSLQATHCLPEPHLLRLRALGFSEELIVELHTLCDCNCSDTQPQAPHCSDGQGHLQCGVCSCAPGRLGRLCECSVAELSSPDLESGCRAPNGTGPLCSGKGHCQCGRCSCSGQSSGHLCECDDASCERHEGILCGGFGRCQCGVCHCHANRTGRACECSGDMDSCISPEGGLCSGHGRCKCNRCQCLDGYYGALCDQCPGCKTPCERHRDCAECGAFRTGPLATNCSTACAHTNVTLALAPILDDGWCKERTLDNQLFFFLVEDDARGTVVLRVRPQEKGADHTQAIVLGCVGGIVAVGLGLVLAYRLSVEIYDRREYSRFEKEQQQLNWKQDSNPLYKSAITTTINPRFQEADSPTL
The experiment in a line: α4β7-K562 Cell Adhesion Assay (α4β7 Mediated Adhesion/MAdCAM-1). Format: cell-based. As for the experimental part:
α4β7-K562 Cell Adhesion Assay (α4β7 Mediated Adhesion/MAdCAM-1)
M2 anti-FLAG antibody coated 96-well plates (Sigma) were coated for 1 hour at 4° C. with 2-8 μl/well recombinant FLAG-hMAdCAM-1 contained in 100 μL of Dulbecco's PBS, pH 7.4, with 1% BSA and 1 mM Mn^2+ (PBS-BSA-Mn). Plates were washed once with PBS-BSA-Mn. Buffer was removed and compounds to be tested (50 μL) were added at 2 times concentration. Stably transfected K562 cells expressing human α4β7 integrin, (50 μL at 2×10^6/mL) that had been labeled with 100 μg/mL carboxymethyl fluorescein diacetate succinimidyl ester (CFDA-SE; Molecular Probes) for 15 min at 37° C. were added to each well and allowed to adhere for 1 h at room temperature. Plates were washed 4 times in PBS-BSA-Mn and then cells were lysed for 2 minutes by addition of 100 μL of PBS without Ca, Mg supplemented with 0.1 M NaOH. The plate was read on a 96-well fluorescent plate reader at 485 nm excitation and 530 nm emission.

The target of another test is α4β1 (Homo sapiens, UniProt P05556+P13612). The experiment in a line: Ramos Cell Adhesion Assay (α4β1 Mediated Adhesion/VCAM-1). Format: cell-based. More on the design: Ramos Cell Adhesion Assay (α4β1 Mediated Adhesion/VCAM-1); endogenous in cells; host or cells: Ramos cells. As for the experimental part: Ramos Cell Adhesion Assay (α4β1 Mediated Adhesion/VCAM-1)
Chain of α4β1 (P05556 21-798, one chain of several): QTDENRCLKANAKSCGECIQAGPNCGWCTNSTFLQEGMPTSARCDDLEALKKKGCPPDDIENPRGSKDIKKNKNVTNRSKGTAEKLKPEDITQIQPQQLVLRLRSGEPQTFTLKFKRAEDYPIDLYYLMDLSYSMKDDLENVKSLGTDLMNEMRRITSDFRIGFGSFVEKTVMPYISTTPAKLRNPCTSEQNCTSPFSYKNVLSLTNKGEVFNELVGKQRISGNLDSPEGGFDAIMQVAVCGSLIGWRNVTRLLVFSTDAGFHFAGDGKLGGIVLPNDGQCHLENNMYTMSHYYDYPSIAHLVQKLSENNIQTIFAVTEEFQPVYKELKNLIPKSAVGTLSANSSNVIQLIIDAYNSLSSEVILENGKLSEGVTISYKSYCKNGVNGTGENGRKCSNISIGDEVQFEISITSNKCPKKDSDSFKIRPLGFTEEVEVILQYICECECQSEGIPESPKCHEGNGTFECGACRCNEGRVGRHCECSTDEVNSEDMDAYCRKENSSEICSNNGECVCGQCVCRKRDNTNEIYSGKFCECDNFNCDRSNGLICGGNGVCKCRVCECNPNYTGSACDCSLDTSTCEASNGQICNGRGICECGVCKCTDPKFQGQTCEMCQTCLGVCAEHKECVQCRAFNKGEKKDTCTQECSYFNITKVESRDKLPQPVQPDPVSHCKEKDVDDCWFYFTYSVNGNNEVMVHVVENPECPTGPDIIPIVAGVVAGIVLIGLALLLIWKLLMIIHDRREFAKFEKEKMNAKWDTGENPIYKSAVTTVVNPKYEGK
Immulon 96 well plates (Dynex) were coated with 100 μL recombinant hVCAM-1 at 4.0 μg/mL in 0.05 M NaCO3 buffer pH 9.0 overnight at 4° C. (R&D Systems). Plates were washed 3 times in PBS with 1% BSA and blocked for 1 h @ room temperature in this buffer. PBS was removed and compounds to be tested (50 μL) were added at 2× concentration. Ramos cells, (50 μL at 2×10^6/mL) labeled with 5 μM Calcein AM (Molecular Probes) for 1 h at 37° C., were added to each well and allowed to adhere for 1 h at room temperature. Plates were washed 3× in PBS+1% BSA and cells were lysed for 15 minutes in 100 μL of 1 M Tris pH 8.0 with 1% SDS. The plate was read at 485 nm excitation and 530 nm emission.

Where [1] appears, read: K562 cells expressing human α4β7 adhering to FLAG-hMAdCAM-1, 1 mM Mn2+, read-out: α4β7, Madcam IC50.
Where [2] appears, read: Ramos cells adhering to recombinant hVCAM-1, read-out: α4β1 IC50.

Regarding `CN(C)C(=O)Oc1ccc(C[C@H](NC(=O)C2CCCc3nnc(-c4ccccc4)n32)C(=O)O)cc1` (stereo partly drawn) [Cpd 1, 3-(4-Dimethylcarbamoyloxy-phenyl)-2-(S)-[(3-phenyl-5,6,7,8-tetrahydro-[1,2,4]triazolo[4,3-a]pyridine-5-carbonyl)-amino]-propionic acid], the 50% inhibitory concentration (IC50) amounted to 1220 nM against human α4β7 integrin and 3300 nM at α4β1.
Taken in the same sequence, the figures for `CN(C)C(=O)Oc1ccc(C[C@H](NC(=O)C2CCCc3nnc(Cc4ccccc4)n32)C(=O)O)cc1` (stereo partly drawn) [Cpd 2, 2-(S)-[(3-Benzyl-5,6,7,8-tetrahydro-[1,2,4]triazolo[4,3-a]pyridine-5-carbonyl)-amino]-3-(4-dimethylcarbamoyloxy-phenyl)-propionic acid] were 1660 nM and 5090 nM.
Turning to `CN(C)C(=O)Oc1ccc(C[C@H](NC(=O)[C@@H]2CCc3nnc(Cc4ccccc4)n32)C(=O)O)cc1` [Cpd 3, 2-(S)-[(3-Benzyl-6,7-dihydro-5H -pyrrolo[2,1-c][1,2,4]triazole-5-(S)-carbonyl)-amino]-3-(4-dimethylcarbamoyloxy-phenyl)-propionic acid], the half-inhibitory concentration (IC50) at human α4β7 integrin is greater than 5000 nM; at α4β1, 4150 nM.
For the compound `O=C(Nc1ccc(C[C@H](NC(=O)[C@@H]2CCc3nnc(Cc4ccccc4)n32)C(=O)O)cc1)c1c(Cl)cccc1Cl` [Cpd 4, 2-(S)-[(3-Benzyl-6,7-dihydro-5H-pyrrolo[2,1-c][1,2,4]triazole-5-(S)-carbonyl)-amino]-3-[4-(2,6-dichloro-benzoylamino)-phenyl]-propionic acid], the IC50 at human α4β7 integrin (setting [1]) is 290 nM; on α4β1 (setting [2]), 620 nM.
Taken in the same sequence, the figures for `O=C(Nc1ccc(C[C@H](NC(=O)[C@@H]2CCc3nnc(Cc4ccccc4)n32)C(=O)O)cc1)c1cccc2ccccc12` [Cpd 5, 2-(S)-[(3-Benzyl-6,7-dihydro-5H-pyrrolo[2,1-c][1,2,4]triazole-5-(S)-carbonyl)-amino]-3-{4-[(naphthalene-1-carbonyl)-amino]-phenyl}-propionic acid] were greater than 5000 nM and greater than 5000 nM.
`O=C(Nc1ccc(C[C@H](NC(=O)[C@@H]2CCc3nnc(Cc4ccccc4)n32)C(=O)O)cc1)c1ccc2ccccc2c1` [Cpd 6, 2-(S)-[(3-Benzyl-6,7-dihydro-5H-pyrrolo[2,1-c][1,2,4]triazole-5-(S)-carbonyl)-amino]-3-{4-[(naphthalene-2-carbonyl)-amino]-phenyl}-propionic acid]: the IC50 at human α4β7 integrin (setting [1]) and at α4β1 (setting [2]) was greater than 5000 nM in each case.
`CCOc1ccc2ccccc2c1C(=O)Nc1ccc(C[C@H](NC(=O)[C@@H]2CCc3nnc(Cc4ccccc4)n32)C(=O)O)cc1` [Cpd 7, 2-(S)-[(3-Benzyl-6,7-dihydro-5H-pyrrolo[2,1-c][1,2,4]triazole-5-(S)-carbonyl)-amino]-3-{4-[(2-ethoxy-naphthalene-1-carbonyl)-amino]-phenyl}-propionic acid]: the IC50 on human α4β7 integrin (setting [1]) and at α4β1 (setting [2]) was greater than 5000 nM in each case.
Regarding `O=C(Nc1ccc(C[C@H](NC(=O)[C@@H]2CCc3nnc(Cc4ccccc4)n32)C(=O)O)cc1)c1cccc2c1-c1ccccc1C2=O` [Cpd 8, 2-(S)-[(3-Benzyl-6,7-dihydro-5H-pyrrolo[2,1-c][1,2,4]triazole-5-(S)-carbonyl)-amino]-3-{4-[(9-oxo-9H-fluorene-4-carbonyl)-amino]-phenyl}-propionic acid], the half-inhibitory concentration (IC50) at human α4β7 integrin (setting [1]) was 350 nM; at α4β1 (setting [2]) it was 1560 nM.
In the case of `O=C(Nc1ccc(C[C@H](NC(=O)[C@@H]2CCc3nnc(Cc4ccccc4)n32)C(=O)O)cc1)c1c(Cl)cncc1Cl` [Cpd 9, 2-(S)-[(3-Benzyl-6,7-dihydro-5H-pyrrolo[2,1-c][1,2,4]triazole-5-(S)-carbonyl)-amino]-3-{4-[(3,5-dichloro-pyridine-4-carbonyl)-amino]-phenyl}-propionic acid], the IC50 on human α4β7 integrin (setting [1]) was 20 nM; on α4β1 (setting [2]) it was 80 nM.
`CCCc1nnc2n1[C@H](C(=O)N[C@@H](Cc1ccc(NC(=O)c3c(Cl)cccc3Cl)cc1)C(=O)O)CC2` [Cpd 10, 3-[4-(2,6-Dichloro-benzoylamino)-phenyl]-2-(S)-[(3-propyl-6,7-dihydro-5H-pyrrolo[2,1-c][1,2,4]triazole-5-(S)-carbonyl)-amino]-propionic acid]: the concentration for half-maximal inhibition (IC50) at human α4β7 integrin (setting [1]) is 80 nM; at α4β1 (setting [2]) it was 1040 nM.
Taken in the same sequence, the figures for `O=C(NCc1nnc2n1[C@H](C(=O)N[C@@H](Cc1ccc(NC(=O)c3c(Cl)cccc3Cl)cc1)C(=O)O)CC2)OCc1ccccc1` [Cpd 11, 2-(S)-{[3-(Benzyloxycarbonylamino-methyl)-6,7-dihydro-5H-pyrrolo[2,1-c][1,2,4]triazole-5-(S)-carbonyl]-amino}-3-[4-(2,6-dichloro-benzoylamino)-phenyl]-propionic acid] were 550 nM and greater than 5000 nM.
For the compound `O=C(Nc1ccc(C[C@H](NC(=O)[C@@H]2CCc3nnc(Cc4ccsc4)n32)C(=O)O)cc1)c1c(Cl)cccc1Cl` [Cpd 12, 3-[4-(2,6-Dichloro-benzoylamino)-phenyl]-2-(S)-[(3-thiophen-3-ylmethyl-6,7-dihydro-5H-pyrrolo[2,1-c][1,2,4]triazole-5-(S)-carbonyl)-amino]-propionic acid], the IC50 at human α4β7 integrin (setting [1]) was found to be 120 nM; at α4β1 (setting [2]) it was 380 nM.
Turning to `NCc1nnc2n1[C@H](C(=O)N[C@@H](Cc1ccc(NC(=O)c3c(Cl)cccc3Cl)cc1)C(=O)O)CC2` [Cpd 14, 2-(S)-[(3-Aminomethyl-6,7-dihydro-5H-pyrrolo[2,1-c][1,2,4]triazole-5-(S)-carbonyl)-amino]-3-[4-(2,6-dichloro-benzoylamino)-phenyl]-propionic acid], the IC50 on α4β1 (setting [2]) is greater than 5000 nM.
